Experimental data published in patent US8735406B2, “8-oxodihydropurine derivative” (Dainippon Sumitomo Pharma Co., Ltd., priority 2009, dated 2014).
Where two headings read alike, the source gives them in different places.

Target: T1, FAAH (Rattus norvegicus, UniProt P97612)
T1 construct: Preparation of Rat Brain Membranes Preparations (FAAH Enzyme Solution); from tissue; host or cells: rat cerebrum (brain membrane preparation)
T1 sequence (P97612 1-579): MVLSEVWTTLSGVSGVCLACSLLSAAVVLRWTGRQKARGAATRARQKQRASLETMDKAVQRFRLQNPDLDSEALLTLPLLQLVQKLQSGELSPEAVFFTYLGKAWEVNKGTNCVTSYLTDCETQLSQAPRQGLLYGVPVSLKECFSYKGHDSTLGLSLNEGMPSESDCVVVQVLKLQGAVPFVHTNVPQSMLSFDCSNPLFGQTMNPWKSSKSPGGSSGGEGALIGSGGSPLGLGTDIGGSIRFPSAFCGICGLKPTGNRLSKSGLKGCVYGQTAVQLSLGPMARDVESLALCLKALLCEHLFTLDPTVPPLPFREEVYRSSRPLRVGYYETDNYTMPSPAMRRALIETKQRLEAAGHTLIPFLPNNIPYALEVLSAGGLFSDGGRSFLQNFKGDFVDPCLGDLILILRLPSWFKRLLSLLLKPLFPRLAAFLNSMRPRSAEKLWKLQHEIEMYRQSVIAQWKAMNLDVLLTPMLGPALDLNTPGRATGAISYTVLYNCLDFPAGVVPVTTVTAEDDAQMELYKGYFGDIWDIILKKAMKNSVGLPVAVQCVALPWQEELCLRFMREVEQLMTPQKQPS
Experiment: Determination of FAAH inhibitory activity in rat (rat brain membrane preparations, [3H]-anandamide hydrolysis)
Assay type: biochemical
Details: for IC50: read-out: FAAH Inhibition IC50
Method in brief: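 Rat cerebrum membranes (100 μg/mL protein) preincubated 10 min at 37 °C with compound (1% DMSO) in pH 7.6 Tris buffer with 1.5% BSA. Substrate 2 nM [3H]-anandamide plus 2 μM anandamide added for 10 min at 37 °C. [3H]-ethanolamine in the aqueous phase after chloroform/methanol extraction was scintillation counted; IC50 over 0.1 nM–1 μM.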

[1] = rat brain membrane preparations, 100 nM test substance, read-out: FAAH Inhibition, Inhibition Rate at 100 nM
[2] = rat brain membrane preparations, test substance 0.1 nM to 1 μM
[3] = read-out: FAAH Inhibition, Inhibition Rate at 100 nM

Structure (SMILES) | inhibition at 0.1 µM [1] [%] | IC50 [2] [µM] | inhibition at 0.1 µM (at 100 nM, rat brain membrane preparations, read-out: FAAH Inhibition Inhibition Rate at 100 nM) [%] | IC50 (rat brain membrane preparations) [µM] | inhibition at 0.1 µM [3] [%]
CN(C)C(=O)n1c(=O)n(C)c2cnc(-c3ccc(OC(F)F)cc3)nc21 [Example 337, 2-[4-(Difluoromethoxy)phenyl]-N,N,7-trimethyl-8-oxo-7,8-dihydro-9H-purine-9-carboxamide] | 82 | 0.046 |  |  | 
CCOc1cccc(CCc2ncc3c(n2)n(C(=O)N(C)C)c(=O)n3C)c1 [compound 534] | 47 | 0.131 |  |  | 
CCOC(=O)CN(C)C(=O)n1c(=O)n(C)c2nc(-c3ccccc3)ncc21 [Example 37, Ethyl N-methyl-N-[(9-methyl-8-oxo-2-phenyl-8,9-dihydro-7H-purin-7-yl)carbonyl]glycinate] | 91 | 0.046 |  |  | 
Cn1c(=O)n(C(=O)N2CCC2)c2nc(CCc3cccc(F)c3)ncc21 [Example 164, 9-(Azetidin-1-ylcarbonyl)-2-[2-(3-fluorophenyl)ethyl]-7-methyl-7,9-dihydro-8H-purine-8-one] | 98 | 0.005 |  |  | 
Cn1c(=O)n(C(=O)N2CCCC2)c2nc(-c3ccccc3)ncc21 [Example 224, 7-Methyl-2-phenyl-9-(pyrrolidin-1-ylcarbonyl)-7,9-dihydro-8H-purine-8-one] | 91 | 0.053 |  |  | 
CCCc1cccc(CCc2ncc3c(n2)n(C(=O)N(C)C)c(=O)n3C)c1 [compound 518] | 107 | 0.009 |  |  | 
Cn1c(=O)n(C(=O)N2CCCC2)c2cnc(-c3cccc(O)c3)nc21 [Example 311, 2-(3-hydroxyphenyl)-9-methyl-7-(pyrrolidin-1-ylcarbonyl)-7,9-dihydro-8H-purine-8-one] | 88 | 0.053 |  |  | 
CN(C)C(=O)n1c(=O)n(C)c2cnc(CCCc3ccccc3)nc21 [Example 614] |  |  | 81 | 0.028 | 
COCc1ncc2c(n1)n(C)c(=O)n2C(=O)N1CC(c2ccc(C)cc2)C1 [compound 452] | 74 | 0.039 |  |  | 
COc1cccc(-c2ncc3c(n2)n(C)c(=O)n3C(=O)N(C)CCc2cccc(F)c2)c1 [Example 75, N-[2-(3-Fluorophenyl)ethyl]-2-(3-methoxyphenyl)-N,9-dimethyl-8-oxo-8,9-dihydro-7H-purine-7-carboxamide] |  | < 0.001 |  |  | 103
CN(CCCc1ccccc1)C(=O)n1c(=O)n(C)c2nc(-c3ccccc3)ncc21 [Example 35, N,9-Dimethyl-8-oxo-2-phenyl-N-(3-phenylpropyl)-8,9-dihydro-7H-purine-7-carboxamide] |  | 0.008 |  |  | 100
CN(C)C(=O)n1c(=O)n(C)c2cnc(-c3cccc(Cl)c3)nc21 [compound 328] | 118 | 0.005 |  |  | 
Cn1c(=O)n(C(=O)N2CCC2)c2nc(CCc3cccc(C4CC4)c3)ncc21 [compound 572] | 83 | 0.099 |  |  | 
CCc1cccc(OCc2ncc3c(n2)n(C(=O)N(C)C)c(=O)n3C)c1 [Example 413] | 98 | 0.003 |  |  | 
COc1ccc(CCc2ncc3c(n2)n(C)c(=O)n3C(=O)N2CCCC2)cc1 [Example 12, 2-[2-(4-Methoxyphenyl)ethyl]-9-methyl-7-(pyrrolidin-1-ylcarbonyl)-7,9-dihydro-8H-purine-8-one] | 93 | 0.046 |  |  | 
Cc1cccc(N2CCN(C(=O)n3c(=O)n(C)c4nc(-c5ccccc5)ncc43)CC2)n1 [Example 53, 9-Methyl-7-{[4-(6-methylpyridin-2-yl)piperazin-1-yl]carbonyl}-2-phenyl-7,9-dihydro-8H-purine-8-one] | 97 | 0.019 |  |  | 
COc1cccc(-c2ncc3c(n2)n(C)c(=O)n3C(=O)N2CCN(Cc3cccc(Cl)c3)CC2)c1 [Example 87, 7-{[4-(3-Chlorobenzyl)piperazin-1-yl]carbonyl}-2-(3-methoxyphenyl)-9-methyl-7,9-dihydro-8H-purine-8-one] |  | 0.01 |  |  | 99
